Experimental data from patent publication US4443466A, “4-Benzyl- and 4-benzoyl-substituted imidazole derivatives and use as medicaments” (priority 1980, dated 1984).
Where two headings read alike, the source gives them in different places.

What was measured:
[1] = system: anesthetized Sprague-Dawley rats (blood pressure, pulse frequency); assay: Blood pressure and pulse frequency in anesthetized normal-weight Sprague-Dawley rats (i.v.); assay type: in vivo, rat (Sprague-Dawley); details: for minimal effective dose: Rattus norvegicus, iv; for anti-hypertensive effect: tested as above
Protocol: The anti-hypertensive properties of the imidazole derivatives of the present invention have been determined according to the following procedure. Sprague-Dawley rats of normal weight were first anesthetized with urethane. After this, the femoral artery was connected by way of a polyethylene tube with a blood pressure transducer. The test substance was then injected into the femoral vein and the blood pressure and the pulse frequency were registered with a recorder. The minimum doses producing a significant change were found, i.e. ± at least 20% in the case of blood pressure, and ± at least 3% in the case of pulse frequency.

[2] = Preventive effect on formation of indomethacin-induced ulcers; assay type: in vivo, rat (female Sprague-Dawley); details: rat, in vivo, iv; LD50 (mouse, i.v.) / ED50 (ulcer); read-out: Therapeutic Index
[3] = system: indomethacin-induced ulcers; assay: as above; assay type: in vivo, rat (female Sprague-Dawley); details: for ED50: Rattus norvegicus, ip, 4 h, read-out: ED50 (ulcer prevention)
[4] = system: rats (motility, muscle tone, catalepsia); assay: Tranquilizing activity: Irwin screen in rats; assay type: in vivo, rat; details: 1.0 mg/kg
Protocol: (§1) The tranquilizing activity of the compounds was determined by the following methods:
(1) Irwin screen in rats (Irwin S., Psychopharmacologia 13:222, 1968)
Especially sedatory and cataleptic activity and effects on muscle tone are observed.

[5] = system: cattle (avoidance, muscle tone); assay: Tranquilizing or taming effect on cattle; assay type: in vivo; details: 0.1 mg/kg i.m.
Protocol: as §1
(2) Tranquilizing or taming effect on cattle:
The test compounds were administered i.m. to cattle, mostly to heifers (150-200 kg).
The most suitable tranquilized state of an animal includes the ability to retain the upright position and coordination with minimal avoidance reactions to painful stimuli and handling. Thus, a combination of sedative and analgesic potency is required.

[6] = Acute toxicity in female NMRI mice, i.v.; details: in vivo, iv, mouse
Protocol: Acute toxicity was determined by using female mice of NMRI-Strain with an age of about 7 months and weighing 30-40 g. The administration of the test compound was i.v.

[7] = system: acetic acid-induced writhing; assay: Writhing test (acetic acid); assay type: in vivo, rat;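 for Analgesic activity: ++ means marked effect and + means moderate effect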
Protocol: (§2) The analgesic activity of the compounds of formula (I) was tested in the following manner: […]
The compounds studied and saline were administered p.o. to rats. Forty-five minutes later, 1 ml of 1% acetic acid was administered i.p. The number of writhes was recorded in the following 25 minute period (Koster et al: Fed. Proc. 18:412, 1959).

[8] = system: male mice on a 55° C. hot plate; assay: Hot plate test; assay type: in vivo, mouse (male); details: for Analgesic activity: 1.5 mg/kg; for change in vivo at 1.5 mg/kg: Mus musculus, ip, 0.5 h, 1.5 mg/kg i.p., read-out: increase in HP-time (%)
Protocol: as §2
Test compounds or saline were given i.p. to male mice. Thirty minutes thereafter, the time for which the mice remained on a 55° C. plate was recorded. The results are expressed as compared to saline.

[9] = system: carrageenan-induced oedema; assay: Inhibition of carrageenan-induced oedema; assay type: in vivo, rat; details: for inhibition in vivo at 100 mg/kg: po, read-out: inhibition carrageenan-induced oedema (%);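 for Anti-inflammatory activity: ++ means marked effect and + means moderate effect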
Protocol: The anti-inflammatory activity of the compounds of the invention was determined by inhibition of the carrageenan induced oedema in rats by the compounds examined (Winter C. A. et al., Proc. Soc. Exp. Biol. Med. 111:544, 1962).

[10] = read-out: Blood Pressure Minimum Dose having a significant lowering effect
[11] = read-out: Pulse frequency Minimum Dose having a significant lowering effect

SMILES	LD50 [6]	Analgesic activity ([7]; 100 mg/kg)	W-number ([7]; 100 mg/kg p.o.)	Anti-inflammatory activity ([9]; 100 mg/kg p.o. in the rat)	inhibition in vivo at 100 mg/kg ([9]; Rattus norvegicus)	also measured
Cc1cc(C)c(Cc2c[nH]cn2)c(C)c1 [4-(2',4',6'-trimethylbenzyl)imidazole, 4-(2',4',6'-Trimethylbenzyl)imidazole]	63 mg/kg					minimal effective dose [1, 10]: 0.05 to 0.2 mg/kg; minimal effective dose [1, 11]: 0.03 mg/kg; selectivity ratio [2]: 2100; ED50 [3]: 0.03 mg/kg; catalepsia [4]: +; decrease of motility [4]: ++; loss of avoidance [5]: +; loss of muscle tone [5]: +
Cc1ccc(Cc2c[nH]cn2)c(C)c1 [4-(2',4'-dimethylbenzyl)imidazole, 4-(2',4'-Dimethylbenzyl)imidazole]	65 mg/kg	++	0	++	76%	selectivity ratio [2]: 2170; ED50 [3]: 0.03 mg/kg; Analgesic activity [8]: +; change in vivo at 1.5 mg/kg [8]: 200%
Clc1cccc(Cl)c1Cc1cnc[nH]1 [4-(2',6'-dichlorobenzyl)imidazole, 4-(2',6'-Dichlorobenzyl)imidazole]	48 mg/kg					minimal effective dose [1, 10]: 0.03 to 0.1 mg/kg; minimal effective dose [1, 11]: 0.03 to 0.1 mg/kg; selectivity ratio [2]: 1600; ED50 [3]: 0.03 mg/kg
CCc1cccc(CC)c1Cc1c[nH]cn1 [4-(2',6'-diethylbenzyl)imidazole]						minimal effective dose [1, 10]: 0.03 to 0.2 mg/kg; minimal effective dose [1, 11]: 0.03 mg/kg
Cc1cccc(C)c1C(=O)c1c[nH]cn1 [4-(2',6'-dimethylbenzoyl)imidazole, 4-(2',6'-Dimethylbenzoyl)imidazole]	> 100 mg/kg					anti-hypertensive effect [1]: only a very slight anti-hypertensive effect; prevention of the formation of ulcers ([3]; 10 mg/kg): prevented them partially; prevention of the formation of ulcers ([3]; 20 mg/kg): prevented completely the formation of ulcers
CCc1ccccc1Cc1c[nH]cn1 [4-(2'-ethylbenzyl)imidazole, 4-(2'-Ethylbenzyl)imidazole]	34 mg/kg					selectivity ratio [2]: 6800; ED50 [3]: 0.005 mg/kg; Analgesic activity [8]: +; change in vivo at 1.5 mg/kg [8]: 150%
Cc1ccccc1Cc1c[nH]cn1 [4-(2'-methylbenzyl)imidazole, 4-(2'-Methylbenzyl)imidazole]	25 mg/kg					lowering of blood pressure ([1]; 0.5 mg/kg i.v., 30 minutes after administration): 10%; minimal effective dose [1, 10]: 0.01 to 0.1 mg/kg; minimal effective dose [1, 11]: 0.1 to 1 mg/kg; selectivity ratio [2]: 5000; prevention of the formation of ulcers ([3]; 5 μg/kg i.p.): complete prevention of the formation of ulcers; ED50 [3]: 0.005 mg/kg; Analgesic activity [8]: +; change in vivo at 1.5 mg/kg [8]: 200%
Cc1cccc(Cc2c[nH]cn2)c1 [4-(3'-methylbenzyl)imidazole, 4-(3'-Methylbenzyl)imidazole]	38 mg/kg			+	61%	selectivity ratio [2]: 1900; ED50 [3]: 0.02 mg/kg; Analgesic activity ([7]; 30 mg/kg): ++; W-number ([7]; 30 mg/kg p.o.): 0; change in vivo at 1.5 mg/kg [8]: 50%; loss of avoidance [5]: +
Cc1ccc(C(=O)c2c[nH]cn2)cc1 [4-(4'-methylbenzoyl)imidazole, 4-(4'-Methylbenzoyl)imidazole]				+		inhibition in vivo at 100 mg/kg ([9]; 100 mg/kg p.o. in the rat): 40%
Cc1cccc(C(O)c2c[nH]cn2)c1C (stereo not drawn) [4-[α-(2',3'-Dimethylphenyl)]hydroxymethylimidazole]		++	0	+	52%	Analgesic activity [8]: ++; change in vivo at 1.5 mg/kg [8]: 400%
Cc1ccc(C(O)c2c[nH]cn2)c(C)c1 (stereo not drawn) [4-[α-(2',4'-Dimethylphenyl)]hydroxymethylimidazole]		+	1.3			
CCOC(c1c[nH]cn1)c1c(C)cccc1C (stereo not drawn) [4-[α-(2',6'-Dimethylphenyl)]ethoxymethylimidazole]	45 mg/kg	++	0.6	+	35%	anti-hypertensive effect [1]: only a very slight anti-hypertensive effect; prevention of the formation of ulcers ([3]; 0.5 mg/kg): prevented them partly; prevention of the formation of ulcers ([3]; 5 mg/kg): completely prevented the formation of ulcers
COC(c1c[nH]cn1)c1c(C)cccc1C (stereo not drawn) [4-[α-(2',6'-Dimethylphenyl)]methoxymethylimidazole]		+	13	+	40%	
CCc1cccc(CC)c1C(O)c1c[nH]cn1 (stereo not drawn) [4-[α-(2',6'-diethylphenyl)]hydroxymethylimidazole]						minimal effective dose [1, 10]: 0.3 to 1 mg/kg; minimal effective dose [1, 11]: 0.3 to 1 mg/kg
CCc1ccccc1C(O)c1c[nH]cn1 (stereo not drawn) [4-[α-(2'-Ethylphenyl)]hydroxymethylimidazole]		++	0	++	73%	Analgesic activity [8]: +; change in vivo at 1.5 mg/kg [8]: 300%
COc1ccccc1C(O)c1c[nH]cn1 (stereo not drawn) [4-[α-(2'-Methoxyphenyl)]hydroxymethylimidazole]		+	2.5	++	69%	minimal effective dose [1, 10]: 0.3 to 1 mg/kg; minimal effective dose [1, 11]: 1 mg/kg
Cc1ccccc1C(O)c1c[nH]cn1 (stereo not drawn) [4-[α-(2'-Methylphenyl)]hydroxymethylimidazole]	160 mg/kg	++	0	+	41%	anti-hypertensive effect [1]: no anti-hypertensive effect was found; prevention of the formation of ulcers ([3]; 0.5 mg/kg): prevented them partly; prevention of the formation of ulcers ([3]; 5 mg/kg): completely prevented the formation of ulcers
COc1cccc(C(O)c2c[nH]cn2)c1 (stereo not drawn) [4-[α-(3'-Methoxyphenyl)]hydroxymethylimidazole]		++	0	++	71%	
Cc1cccc(C(O)c2c[nH]cn2)c1 (stereo not drawn) [4-[α-(3'-Methylphenyl)]hydroxymethylimidazole]		++	0	+	34%	
COc1ccc(C(O)c2c[nH]cn2)cc1 (stereo not drawn) [4-[α-(4'-Methoxyphenyl)]hydroxymethylimidazole]		+	1.9			
Cc1ccc(C(O)c2c[nH]cn2)cc1 (stereo not drawn) [4-[α-(4'-Methylphenyl)]hydroxymethylimidazole]		++	0.6	+	38%	
Cc1cccc(C)c1Cc1nc[nH]c1C [5-Methyl-4-(2',6'-dimethylbenzyl)imidazole]	27 mg/kg					anti-hypertensive effect [1]: no anti-hypertensive effect was found; prevention of the formation of ulcers ([3]; 0.5 mg/kg): partly prevented the formation of ulcers; prevention of the formation of ulcers ([3]; 5 mg/kg): prevented them completely
Cc1cccc(C)c1C(O)c1nc[nH]c1C (stereo not drawn) [5-Methyl-4-[α-(2',6'-dimethylphenyl)]hydroxymethylimidazole]		+	13	+		inhibition in vivo at 100 mg/kg ([9]; 100 mg/kg p.o. in the rat): 52%
Cc1ccccc1C(O)c1nc[nH]c1C (stereo not drawn) [5-Methyl-4-[α-(2'-methylphenyl)]hydroxymethylimidazole]				+		inhibition in vivo at 100 mg/kg ([9]; 100 mg/kg p.o. in the rat): 67%
Cc1ccccc1C(=O)c1nc[nH]c1C [5-methyl-4-(2'-methylbenzoyl)imidazole, 5-Methyl-4-(2'-methylbenzoyl)imidazole]				+		inhibition in vivo at 100 mg/kg ([9]; 100 mg/kg p.o. in the rat): 44%
Cc1ccccc1Cc1nc[nH]c1C [5-methyl-4-(2'-methylbenzyl)imidazole, 5-Methyl-4-(2'-methylbenzyl)imidazole]				+		Analgesic activity ([7]; 30 mg/kg): +; W-number ([7]; 30 mg/kg p.o.): 43; inhibition in vivo at 100 mg/kg ([9]; 100 mg/kg p.o. in the rat): 44%
